Experimental data reported in patent publication US20200038513A1, “MODULATORS OF FAK PROTEOLYSIS AND ASSOCIATED METHODS OF USE” (ARVINAS OPERATIONS, INC., priority 2018, published 2020).

Test system: MDA-MB-231 cells
Experiment: RPPA (reverse phase protein array)
Assay type: cell-based, human
Settings: 500nM
Procedure: RPPA analysis was performed by MD Anderson Cancer Center RPPA core facility.
Examination of the Molecular Signaling Events) and/or Downstream Pathways Responsible for the Migration and Invasion Effects Observed by Exemplary Compound Treatment. To pinpoint these observations to a molecular signaling event or specific downstream pathway, reverse phase protein array (RPPA) analysis was performed (Table 4).

SMILES: Cc1ncsc1-c1ccc(CNC(=O)[C@@H]2C[C@@H](O)CN2C(=O)[C@@H](NC(=O)CCOCCOc2ccc(Nc3ncc(C(F)(F)F)c(NCc4cccc(N(C)S(C)(=O)=O)c4)n3)cc2)C(C)(C)C)cc1 [Compound 102, (2S,4R)-1-((S)-3,3-dimethyl-2-(3-(2-(4-((4-((3-(N-methylmethylsulfonamido)benzyl)amino)-5-(trifluoromethyl)pyrimidin-2-yl)amino)phenoxy)ethoxy)propanamido)butanoyl)-4-hydroxy-N-(4-(4-methylthiazol-5-yl)benzyl)pyrrolidine-2-carboxamide]
- rel. Protein level, 4E-BP1: 110.6%
- rel. Protein level, 4E-BP1_pS65: 92.3%
- rel. Protein level, 14-3-3-beta: 100.5%
- rel. Protein level, 14-3-3-zeta: 105.4%
- rel. Protein level, 53BP1: 111.3%
- rel. Protein level, A-Raf: 106.5%
- rel. Protein level, ACC1: 103.3%
- rel. Protein level, ACC_pS79: 95.4%
- rel. Protein level, ADAR1: 121.2%
- rel. Protein level, AMPK-a2_pS345: 97.2%
- rel. Protein level, AMPKa: 105.1%
- rel. Protein level, AMPKa_pT172: 92.7%
- rel. Protein level, AR: 85.0%
- rel. Protein level, ARID1A: 121.1%
- rel. Protein level, ATM: 106.8%
- rel. Protein level, ATM_pS1981: 99.7%
- rel. Protein level, ATR_pS428: 99.2%
- rel. Protein level, Akt: 101.7%
- rel. Protein level, Akt_pS473: 74.2%
- rel. Protein level, Akt_pT308: 94.2%
- rel. Protein level, Annexin-I: 117.8%
- rel. Protein level, Annexin-VII: 110.0%
- rel. Protein level, Atg3: 98.3%
- rel. Protein level, Atg7: 100.8%
- rel. Protein level, Aurora-B: 92.3%
- rel. Protein level, Axl: 94.7%
- rel. Protein level, B7-H4: 97.5%
- rel. Protein level, B-Raf: 110.9%
- rel. Protein level, B-Raf_pS445: 108.0%
- rel. Protein level, BAP1: 96.8%
- rel. Protein level, BRD4: 118.7%
- rel. Protein level, Bad_pS112: 102.3%
- rel. Protein level, Bak: 100.7%
- rel. Protein level, Bax: 110.5%
- rel. Protein level, Bc1-xL: 97.6%
- rel. Protein level, Bc12: 92.8%
- rel. Protein level, Beclin_l: 100.0%
- rel. Protein level, BiP-GRP78: 103.0%
- rel. Protein level, Bid: 102.8%
- rel. Protein level, Bim: 102.9%
- rel. Protein level, C-Raf: 100.8%
- rel. Protein level, C-Raf_pS338: 90.7%
- rel. Protein level, CD4: 101.8%
- rel. Protein level, CD20: 92.3%
- rel. Protein level, CD29: 104.7%
- rel. Protein level, CD31: 98.2%
- rel. Protein level, CD44: 106.6%
- rel. Protein level, CD45: 97.9%
- rel. Protein level, CD49b: 116.5%
- rel. Protein level, CD134: 99.0%
- rel. Protein level, CDK1_pT14: 94.6%
- rel. Protein level, COG3: 107.9%
- rel. Protein level, Caspase-3: 106.7%
- rel. Protein level, Caspase-7-cleaved-: 113.1%
- rel. Protein level, Caspase-8: 102.4%
- rel. Protein level, Caveolin-1: 141.0%
- rel. Protein level, Chk2: 94.4%
- rel. Protein level, Chk2_pT68: 103.4%
- rel. Protein level, Chkl: 92.3%
- rel. Protein level, Chkl_pS296: 96.6%
- rel. Protein level, Claudin-7: 101.6%
- rel. Protein level, Collagen-VI: 93.4%
- rel. Protein level, Connexin-43: 92.3%
- rel. Protein level, Cox2: 171.3%
- rel. Protein level, Cox-IV: 104.5%
- rel. Protein level, Creb: 103.4%
- rel. Protein level, Cyclin-B1: 96.7%
- rel. Protein level, Cyclin-D1: 105.2%
- rel. Protein level, Cyclin-D3: 94.7%
- rel. Protein level, Cyclin-E1: 110.5%
- rel. Protein level, Cyclophilin-F: 97.6%
- rel. Protein level, D-a-Tubulin: 95.2%
- rel. Protein level, DJ1: 103.5%
- rel. Protein level, DM-Histone-H3: 108.5%
- rel. Protein level, DM-K9-Histone-H3: 111.9%
- rel. Protein level, DUSP4: 142.6%
- rel. Protein level, E2F1: 98.2%
- rel. Protein level, E-Cadherin: 92.7%
- rel. Protein level, EGFR: 98.2%
- rel. Protein level, EGFR_pY1173: 101.5%
- rel. Protein level, EMA: 109.4%
- rel. Protein level, ENY2: 95.1%
- rel. Protein level, ER: 98.1%
- rel. Protein level, ER-a_pS118: 109.9%
- rel. Protein level, ERCC1: 93.6%
- rel. Protein level, ERCC5: 103.3%
- rel. Protein level, Elk1_pS383: 97.5%
- rel. Protein level, Ets-1: 97.7%
- rel. Protein level, FAK: 55.4%
- rel. Protein level, FAK_pY397: 86.4%
- rel. Protein level, FASN: 92.6%
- rel. Protein level, FOXM1: 92.4%
- rel. Protein level, Fibronectin: 103.9%
- rel. Protein level, FoxO3a: 100.5%
- rel. Protein level, FoxO3a_pS318_S321: 96.0%
- rel. Protein level, G6PD: 97.7%
- rel. Protein level, GAPDH: 99.4%
- rel. Protein level, GATA3: 97.2%
- rel. Protein level, GATA-6: 99.4%
- rel. Protein level, GCLM: 99.9%
- rel. Protein level, GCN5L2: 99.4%
- rel. Protein level, GSK-3a-b: 107.2%
- rel. Protein level, GSK-3a-b_pS21_S9: 97.0%
- rel. Protein level, Gab2: 100.5%
- rel. Protein level, Glutamate-D1-2: 95.5%
- rel. Protein level, Glutaminase: 111.5%
- rel. Protein level, Granzyme-B: 101.4%
- rel. Protein level, Gys: 111.6%
- rel. Protein level, Gys_pS641: 105.2%
- rel. Protein level, H2AX_pS140: 117.7%
- rel. Protein level, HER2: 106.9%
- rel. Protein level, HER2_pY1248: 97.5%
- rel. Protein level, HER3: 102.8%
- rel. Protein level, HER3_pY1289: 96.9%
- rel. Protein level, HES1: 92.3%
- rel. Protein level, HLA-DR-DP-DQ-DX: 101.7%
- rel. Protein level, HSP27: 96.5%
- rel. Protein level, HSP27_pS82: 95.4%
- rel. Protein level, HSP70: 105.2%
- rel. Protein level, Heregulin: 113.3%
- rel. Protein level, Hexokinase-II: 99.4%
- rel. Protein level, Hif-l-alpha: 130.8%
- rel. Protein level, Histone-H3: 131.4%
- rel. Protein level, IGF1R_pY1135_Y1136: 97.2%
- rel. Protein level, IGFBP2: 89.0%
- rel. Protein level, IGFRb: 98.5%
- rel. Protein level, INPP4b: 98.0%
- rel. Protein level, IR-b: 111.4%
- rel. Protein level, IRF-1: 111.6%
- rel. Protein level, IRS1: 101.4%
- rel. Protein level, JNK2: 103.8%
- rel. Protein level, JNK_pT183_Y185: 98.5%
- rel. Protein level, Jagged1: 111.0%
- rel. Protein level, Jak2: 107.2%
- rel. Protein level, LC3A-B: 106.5%
- rel. Protein level, LDHA: 123.8%
- rel. Protein level, LRP6_pS1490: 128.4%
- rel. Protein level, Lck: 96.8%
- rel. Protein level, MAPK_pT202-Y204: 93.7%
- rel. Protein level, MCT4: 126.7%
- rel. Protein level, MDM2_pS166: 94.8%
- rel. Protein level, MEK1: 106.4%
- rel. Protein level, MEK1_p_S217-S221: 95.0%
- rel. Protein level, MERIT40_pS29: 92.3%
- rel. Protein level, MIF: 107.4%
- rel. Protein level, MIG6: 106.7%
- rel. Protein level, MMP2: 103.9%
- rel. Protein level, MMP14-[EP1264Y]: 137.5%
- rel. Protein level, MMP-14: 120.9%
- rel. Protein level, MSH6: 97.8%
- rel. Protein level, MSI2: 93.5%
- rel. Protein level, Mcl-1: 89.4%
- rel. Protein level, Merlin: 94.1%
